From US20020142463A1, “Method for the mass propagation of adventitious roots of ginseng, camphor ginseng and wild ginseng by tissue culture and the improvement of their saponin content” (priority 2001, published 2002)

Legend:
[1] = tested on: adventitious root of cultivated ginseng; assay: Effect of added growth regulator on adventitious root propagation (cultivated ginseng); type: cell-based, Panax ginseng C.A. Meyer; design: Cultivated ginseng (Increment rate of biomass): unit not given here; conditions: for Cultivated ginseng (Increment rate of biomass): MS media, 3% sugar, pH6.0
Experimental: (§1) After adding 3% of sugar to the MS media and adjusting pH6.0, basal medium were made by adding 1 mg/L, 2 mg/L, 3 mg/L, 5 mg/L of each of the IBA, NAA and BSAA as auxin. These basal mediums were divided into a 1 L flask and a 5 L bioreactor.

[2] = tested on: adventitious root of wild ginseng; assay: Effect of added growth regulator on adventitious root propagation (wild ginseng); type: cell-based; design: unit not given here; conditions: MS media, 3% sugar, pH6.0
Experimental: as §1

[3] = tested on: root tissue of cultivated ginseng, camphor ginseng, and wild ginseng; assay: Effect of growth regulator pretreatment before culturing on saponin content and saponin ratio; type: cell-based; conditions: pretreatment 1-10 hours before culturing at 1-100 mg/L
Experimental: (§2) The measurement of saponin content was followed by the standard method for the analysis of ginseng constituent of The Korean Ginseng Research Institute.
Among growth regulators, BA(benzyl adenine) 2iP, zeatin, […], TDZ, kinetin which are included in cytokinin groups was treated 1-10 hours before culturing the root tissue of cultivated ginseng, camphor ginseng, and wild ginseng at the concentration of 1-100 mg/L. Immediate after the pretreatment the saponin and the diol:triol content were compared and analyzed.

[4] = tested on: adventitious root of cultivate ginseng, camphor ginseng, wild ginseng; assay: Effect of jasmonic acid and methyl jasmonic acid treatment on the saponin content of adventitious root in balloon shape bioreactor; type: cell-based
Description: as §2
While culturing the adventitious root of cultivate ginseng, camphor ginseng, wild ginseng in a balloon shape bioreactor, the saponin content in the adventitious root was examined at the initial time, 10 days before harvest, and after harvest with the treatment of various concentrations of jasmonic acid and methyl jasmonic acid.
The experiment was conducted under the conditions of pH 6.0 and the MS media added with 3% sugar and 2.0 mg/L IBA.
The saponin content in the adventitious root was measured for the root treated by various concentrations of jamonic acid or methyl jamonic acid of 0, 1, 2, 5, 10 mg/L 10 days before harvest and the root washed by tap water obtained from the MS media not containing sugar or the treated root by tap water which includes jasmonic acid or methyl jasmonic acid, for one week.

`O=C(O)Cc1c[se]c2ccccc12` [BSAA, benzo [b] selenienyl acetic acid] was tested, and the “increment of the biomass (in words)” value ([1]; concentration of 2-3 mg/L, text summary of Table 1 (cultivated and wild ginseng)) was “remarkable increment”, the “Cultivated ginseng (Increment rate of biomass)” value (from here on “Cultivated ginseng”) ([1]; growth regulator 1 mg/L) was 5.3 and the “Cultivated ginseng” value ([1]; growth regulator 2 mg/L) was 13.2. The “Cultivated ginseng” value ([1]; growth regulator 3 mg/L) was 11.4, the “Cultivated ginseng” value ([1]; growth regulator 5 mg/L) was 4.8 and the “Wild ginseng (Increment rate of biomass)” value ([2]; growth regulator 1 mg/L) was 5.0. The “Wild ginseng (Increment rate of biomass)” value ([2]; growth regulator 2 mg/L) was 12.5, the “Wild ginseng (Increment rate of biomass)” value ([2]; growth regulator 3 mg/L) was 11.7 and the “Wild ginseng (Increment rate of biomass)” value ([2]; growth regulator 5 mg/L) was 3.9.
`CC/C=C\CC1C(=O)CCC1CC(=O)OC` (stereo not drawn) [methyl jasmonic acid] showed a saponin content [3] of 6.50 and a triol/diol [3] of 2.40.
For `C/C(=C\CNc1ncnc2[nH]cnc12)CO` [zeatin], the “remarks: effect on the saponin components” value (from here on “remarks: effect”) [3] was “zeatin show similar”.
`CC(C)=CCNc1ncnc2nc[nH]c12` [2iP] was tested, and the “remarks: effect” value [3] was “zeatin show similar”.
With `O=C(O)CCCc1c[nH]c2ccccc12` [IBA] the “Cultivated ginseng” value ([1]; growth regulator 1 mg/L) was 4.5, the “Cultivated ginseng” value ([1]; growth regulator 2 mg/L) was 6.7 and the “Cultivated ginseng” value ([1]; growth regulator 3 mg/L) was 6.5. For the same compound, the “Cultivated ginseng” value ([1]; growth regulator 5 mg/L) was 3.8, the “Wild ginseng (Increment rate of biomass)” value ([2]; growth regulator 1 mg/L) was 4.3 and the “Wild ginseng (Increment rate of biomass)” value ([2]; growth regulator 2 mg/L) was 6.8. For the same compound, the “Wild ginseng (Increment rate of biomass)” value ([2]; growth regulator 3 mg/L) was 5.7 and the “Wild ginseng (Increment rate of biomass)” value ([2]; growth regulator 5 mg/L) was 4.2.
`c1ccc(CNc2ncnc3nc[nH]c23)cc1` [BA, benzyl adenine] showed a saponin content [3] of 1.23 and a triol/diol [3] of 1.63.
With `c1coc(CNc2ncnc3[nH]cnc23)c1` [kinetin] the “remarks: effect” value [3] was “zeatin show similar”.
With `O=C(O)Cc1cccc2ccccc12` [NAA, naphthalemeacetic acid] the “Cultivated ginseng” value ([1]; growth regulator 1 mg/L) was 3.2, the “Cultivated ginseng” value ([1]; growth regulator 2 mg/L) was 7.2 and the “Cultivated ginseng” value ([1]; growth regulator 3 mg/L) was 6.7. For the same compound, the “Cultivated ginseng” value ([1]; growth regulator 5 mg/L) was 4.2, the “Wild ginseng (Increment rate of biomass)” value ([2]; growth regulator 1 mg/L) was 3.4 and the “Wild ginseng (Increment rate of biomass)” value ([2]; growth regulator 2 mg/L) was 6.8. The “Wild ginseng (Increment rate of biomass)” value ([2]; growth regulator 3 mg/L) was 6.2 and the “Wild ginseng (Increment rate of biomass)” value ([2]; growth regulator 5 mg/L) was 3.8.
jasmonic acid gave a saponin content [3] of 6.50 and a triol/diol [3] of 2.40.
In the case of `CC/C=C\C[C@H]1C(=O)CC[C@@H]1CC(=O)O` [Jasmonic acid, jasmonic acid], the “Ginsenoside content Rb Group” value ([4]; jasmonic acid 1 mg/L) is reported as 13.29 mg. 1 g drymass, the “Ginsenoside content Rg Group” value ([4]; jasmonic acid 1 mg/L) is reported as 2.83 mg. 1 g drymass and the “Ginsenoside content Total content” value ([4]; jasmonic acid 1 mg/L) is reported as 16.09 mg. 1 g drymass. For the same compound, the Rb/Rg ([4]; jasmonic acid 1 mg/L) was 4.68, the “Ginsenoside content Rb Group” value ([4]; jasmonic acid 2 mg/L) was 24.19 mg. 1 g drymass and the “Ginsenoside content Rg Group” value ([4]; jasmonic acid 2 mg/L) was 4.46 mg. 1 g drymass. The “Ginsenoside content Total content” value ([4]; jasmonic acid 2 mg/L) was 28.69 mg. 1 g drymass, the Rb/Rg ([4]; jasmonic acid 2 mg/L) was 5.45 and the “Ginsenoside content Rb Group” value ([4]; jasmonic acid 5 mg/L) was 34.69 mg. 1 g drymass. For the same compound, the “Ginsenoside content Rg Group” value ([4]; jasmonic acid 5 mg/L) was 4.15 mg. 1 g drymass, the “Ginsenoside content Total content” value ([4]; jasmonic acid 5 mg/L) was 38.82 mg. 1 g drymass and the Rb/Rg ([4]; jasmonic acid 5 mg/L) was 8.43. The “Ginsenoside content Rb Group” value ([4]; jasmonic acid 10 mg/L) was 54.29 mg. 1 g drymass, the “Ginsenoside content Rg Group” value ([4]; jasmonic acid 10 mg/L) was 5.53 mg. 1 g drymass and the “Ginsenoside content Total content” value ([4]; jasmonic acid 10 mg/L) was 59.87 mg. 1 g drymass. It also gave a Rb/Rg ([4]; jasmonic acid 10 mg/L) of 9.83.
For `O=C(Nc1ccccc1)Nc1cnns1` [TDZ], the “remarks: effect” value [3] was “zeatin show similar”.
